Data published in patent publication US6015823A, “4-Cyclohexylphenyl-oxazolines and their use for controlling animal pests” (Bayer Aktiengesellschaft, priority 1996, dated 2000).
Like-named read-outs stand apart in the source and are kept apart here.

Experiments:
[1] = tested on: common spider mite (Tetranychus urticae); experiment: Tetranychus test (OP resistant/dip treatment); format: in vivo; settings: for mortality at 0.0001 %: Tetranychus urticae, 312 h, read-out: destruction in %
Protocol: Tetranychus test (OP resistant/dip treatment)
Solvent: 3 parts by weight of dimethylformamide
(§1) Emulsifier: 1 part by weight of alkylaryl polyglycol ether
To produce a suitable preparation of active compound, 1 part by weight of active compound is mixed with the stated amount of solvent and the stated amount of emulsifier, and the concentrate is diluted with emulsifier-containing water to the desired concentrations.
Bean plants (Phaseolus vulgaris) which are heavily infested by all stages of the common spider mite (Tetranychus urticae) are dipped into the active compound preparation of the desired concentration.
After the desired period of time, the activity in % is determined. 100% means that all the spider mites have been killed; 0% means that none of the spider mites have been killed.

[2] = tested on: mustard beetle larvae (Phaedon cochleariae); experiment: Phaedon larvae test; format: in vivo; settings: active compound concentration 0.01%, after 7 days; for mortality at 0.01 %: Phaedon cochleariae, 168 h, read-out: destruction in %
Protocol: (§2) Solvent: 7 parts by weight of dimethylformamide
as §1
(§3) To produce a suitable preparation of active compound, I part by weight of active compound is mixed with the stated amount of solvent and the stated amount of emulsifier, and the concentrate is diluted with water to the desired concentration.
Cabbage leaves (Brassica oleracea) are treated by being dipped into the active compound preparation of the desired concentration and are infested with mustard beetle larvae (Phaedon cochleariae), while the leaves are still moist.
After the desired period of time, the destruction in % is determined. 100% means that all the beetle larvae have been killed; 0% means that none of the beetle larvae have been killed.

[3] = tested on: peach aphids (Myzus persicae); experiment: Myzus test; format: in vivo; settings: active compound concentration 0.1%, after 6 days; for mortality at 0.1 %: Myzus persicae, 144 h, read-out: destruction in %
Protocol: as §2, §1
(§4) To produce a suitable preparation of active compound, 1 part by weight of active compound is mixed with the stated amount of solvent and the stated amount of emulsifier, and the concentrate is diluted with water to the desired concentration.
Seedlings of the broad bean (Vicia faba) which are infested with peach aphids (Myzus persicae) are dipped into the active compound preparation of the desired concentration and placed into a plastic box.
After the desired period of time, the destruction in % is determined. 100% means that all the aphids have been killed; 0% means that none of the aphids have been killed.

[4] = tested on: caterpillars of the owlet moth (Spodoptera frugiperda); experiment: Spodoptera frugiperda test; format: in vivo; settings: active compound concentration 0.1%, after 7 days; for mortality at 0.1 %: Spodoptera frugiperda, 168 h, read-out: destruction in %
Protocol: Spodoptera frugiperda test
as §2, §1, §3
Cabbage leaves (Brassica oleracea) are treated by being dipped into the active compound preparation of the desired concentration and are infested with caterpillars of the owlet moth (Spodoptera frugiperda), while the leaves are still moist.
After the desired period of time, the destruction in % is determined. 100% means that all the caterpillars have been killed; 0% means that none of the caterpillars have been killed.

[5] = tested on: green rice leaf hopper (Nephotettix cincticeps); experiment: Nephotettix test; format: in vivo; settings: active compound concentration 0.1%, after 6 days; for mortality at 0.1 %: Nephotettix cincticeps, 144 h, read-out: destruction in %
Protocol: as §2, §1, §4
Rice seedlings (Oryza sativa) are treated by being dipped into the active compound preparation of the desired concentration and are infested with the green rice leaf hopper (Nephotettix cincticeps), while the seedlings are still moist.
After the desired period of time, the destruction in % is determined. 100% means that all the leaf hoppers have been killed; 0% means that none of the leaf hoppers have been killed.

[6] = logp: n-octanol/water partition coefficient by reversed phase HPLC; format: physicochemical; settings: h2o/ch3cn, read-out: logp (logarithm to base ten of the n-octanol/water partition coefficient)
Source text: *) logp: Logarithm to base ten of the n-octanol/water partition coefficient, determined by reversed phase HPLC analysis using H2 O/CH3 CN.
*^) logp: Logarithm to base ten of the noctanol/water partition
coefficient, determined by reversed phase HPLC analysis using H2

[7] = A isomer (possible geometric isomer)
[8] = B isomer (possible geometric isomer)

With `Oc1ccc(-c2ccc(C3COC(c4c(F)cccc4F)=N3)cc2)cc1` (stereo not shown) [(A), reference compound] the “destruction (in words)” value ([1]; active compound concentration 0.0001%, after 13 days) was “no destruction”, the “activity (in words)” value [2] was “no activity” and the “activity (in words)” value [3] was “no activity”.

In the case of `COc1ccc(-c2ccc(C3COC(c4c(F)cccc4F)=N3)cc2)cc1` (stereo not shown) [(B), reference compound], the “activity (in words)” value [4] is reported as “no activity”, the “activity (in words)” value [5] is reported as “no activity” and the “activity (in words)” value [2] is reported as “no activity”.

For `CC(C)Oc1ccc(-c2ccc(C3COC(c4c(F)cccc4F)=N3)cc2)cc1` (stereo not shown) [(C)], the “activity (in words)” value [5] was “no activity”.

For `CC(C)COc1ccc(-c2ccc(C3COC(c4c(F)cccc4F)=N3)cc2)cc1` (stereo not shown) [(D)], the “activity (in words)” value [5] was “no activity”.

In the case of `CCCCOc1ccc(-c2ccc(C3COC(c4c(F)cccc4F)=N3)cc2)cc1` (stereo not shown) [(E)], the “activity (in words)” value [5] is reported as “no activity”.

`CCCOc1ccc(-c2ccc(C3COC(c4c(F)cccc4F)=N3)cc2)cc1` (stereo not shown) [(F), reference compound] showed a mortality at 0.0001 % [1] of 45%.

`O=C1CCC(c2ccc(C3COC(c4c(F)cccc4F)=N3)cc2)CC1` (stereo not shown) [Example 1, 2-(2,6-difluorophenyl)-4-[4-(4-oxo-cyclohexyl)-phenyl]-1,3-oxazoline] showed a chromatographic logP [6] of 2.28 and a mortality at 0.1 % [5] of 90%.

`CC(C)ON=C1CCC(c2ccc(C3COC(c4c(F)cccc4F)=N3)cc2)CC1` (stereo not shown) [Example 4] gave a mortality at 0.1 % [4] of 100%, a mortality at 0.0001 % [1] of 98% and a chromatographic logP [6] of 4.5. It also gave a mortality at 0.01 % [2] of 90% and a mortality at 0.1 % [3] of 100%.

Work on `COC1(OC)CCC(c2ccc(C3COC(c4c(F)cccc4F)=N3)cc2)CC1` (stereo not shown) [Example 8] yielded a chromatographic logP [6] of 3.8 and a mortality at 0.01 % [2] of 90%.

In the case of `CCC(C)ON=C1CCC(c2ccc(C3COC(c4c(F)cccc4F)=N3)cc2)CC1` (stereo not shown) [Example 9], the mortality at 0.1 % [4] is reported as 100%, the mortality at 0.0001 % [1] is reported as 98% and the chromatographic logP [6] is reported as 4.96. For the same compound, the mortality at 0.01 % [2] was 100%.

Work on `Fc1cccc(F)c1C1=NC(c2ccc(C3CCC4(CC3)OCC(c3cccc(Cl)c3)O4)cc2)CO1` (stereo not shown) [Example 10] yielded a mortality at 0.1 % [4] of 100%, a mortality at 0.0001 % [1] of 98% and a chromatographic logP [6] of 5.22. The mortality at 0.01 % [2] was 100%.

With `Fc1cccc(F)c1C1=NC(c2ccc(C3CCC(=NOCc4ccccc4)CC3)cc2)CO1` (stereo not shown) [Example 12] the mortality at 0.0001 % [1] was 98% and the chromatographic logP [6] was 4.7.

Work on `CC1OC2(CCC(c3ccc(C4COC(c5c(F)cccc5F)=N4)cc3)CC2)OC1C` (stereo not shown) [Example 13] yielded a mortality at 0.0001 % [1] of 98%, a chromatographic logP [6, 7] of 4.23 and a chromatographic logP [6, 8] of 4.31. The mortality at 0.1 % [5] was 80% and the mortality at 0.01 % [2] was 100%.

With `CC(C)(C)C1COC2(CCC(c3ccc(C4COC(c5c(F)cccc5F)=N4)cc3)CC2)O1` (stereo not shown) [Example 15] the mortality at 0.0001 % [1] was 98%, the chromatographic logP [6, 7] was 5.41 and the chromatographic logP [6, 8] was 5.48. For the same compound, the mortality at 0.01 % [2] was 100% and the mortality at 0.1 % [3] was 90%.

In the case of `CCCCCCCC1COC2(CCC(c3ccc(C4COC(c5c(F)cccc5F)=N4)cc3)CC2)O1` (stereo not shown) [Example 16], the mortality at 0.0001 % [1] is reported as 98%, the chromatographic logP [6, 7] is reported as 6.25 and the chromatographic logP [6, 8] is reported as 6.31. For the same compound, the mortality at 0.1 % [3] was 90%.

`CCCCCCCCCC1COC2(CCC(c3ccc(C4COC(c5c(F)cccc5F)=N4)cc3)CC2)O1` (stereo not shown) [Example 17] showed a mortality at 0.1 % [4] of 100%, a mortality at 0.0001 % [1] of 98% and a chromatographic logP [6, 7] of 7.12. For the same compound, the chromatographic logP [6, 8] was 7.2, the mortality at 0.01 % [2] was 100% and the mortality at 0.1 % [3] was 90%.

Compound `CCCCOC1(OCCCC)CCC(c2ccc(C3COC(c4c(F)cccc4F)=N3)cc2)CC1` (stereo not shown) [Example 19] has a mortality at 0.1 % [4] of 100%, a mortality at 0.0001 % [1] of 98% and a chromatographic logP [6, 7] of 6.77. The chromatographic logP [6, 8] was 6.86.

`Fc1cccc(F)c1C1=NC(c2ccc(C3CCC(=NOCc4ccc(C(F)(F)F)cc4Cl)CC3)cc2)CO1` (stereo not shown) [Example 20] showed a mortality at 0.0001 % [1] of 98%, a chromatographic logP [6] of 5.91 and a mortality at 0.01 % [2] of 100%.

With `Fc1cccc(F)c1C1=NC(c2ccc(C3CCC(=NOCc4ccc(Cl)cc4Cl)CC3)cc2)CO1` (stereo not shown) [Example 21] the mortality at 0.0001 % [1] was 98%, the chromatographic logP [6] was 5.92 and the mortality at 0.1 % [3] was 80%.

Compound `Fc1cccc(F)c1C1=NC(c2ccc(C3CCC(=NOCc4ccccc4Cl)CC3)cc2)CO1` (stereo not shown) [Example 22] has a mortality at 0.0001 % [1] of 98% and a chromatographic logP [6] of 5.21.

For `CC(C)(C)c1ccc(C2COC3(CCC(c4ccc(C5COC(c6c(F)cccc6F)=N5)cc4)CC3)O2)cc1` (stereo not shown) [Example 23], the mortality at 0.0001 % [1] was 98% and the chromatographic logP [6] was 6.16.

In the case of `Fc1cccc(F)c1C1=NC(c2ccc(C3CCC4(CC3)OCC(c3ccccc3Cl)O4)cc2)CO1` (stereo not shown) [Example 24], the mortality at 0.0001 % [1] is reported as 98% and the chromatographic logP [6] is reported as 5.6.

Work on `Fc1cccc(F)c1C1=NC(c2ccc(C3CCC4(CC3)OCC(c3cccc(Cl)c3Cl)O4)cc2)CO1` (stereo not shown) [Example 25] yielded a mortality at 0.0001 % [1] of 98% and a chromatographic logP [6] of 6.07.

`Fc1cccc(F)c1C1=NC(c2ccc(C3CCC4(CC3)OCC(COc3ccc(Cl)cc3)O4)cc2)CO1` (stereo not shown) [Example 46] gave a chromatographic logP [6, 7] of 5.1 and a chromatographic logP [6, 8] of 5.16.

For `CC(C)C1(c2ccc(Cl)cc2)COC2(CCC(c3ccc(C4COC(c5c(F)cccc5F)=N4)cc3)CC2)OC1` (stereo not shown) [Example 47], the chromatographic logP [6] was 6.15.

`C=CCOCC1COC2(CCC(c3ccc(C4COC(c5c(F)cccc5F)=N4)cc3)CC2)O1` (stereo not shown) [Example 48] gave a chromatographic logP [6] of 4.21.

For `COCC1COC2(CCC(c3ccc(C4COC(c5c(F)cccc5F)=N4)cc3)CC2)O1` (stereo not shown) [Example 49], the chromatographic logP [6, 7] was 3.57 and the chromatographic logP [6, 8] was 3.6.

`CC1COC2(CCC(c3ccc(C4COC(c5c(F)cccc5F)=N4)cc3)CC2)O1` (stereo not shown) [Example 50] gave a chromatographic logP [6] of 3.89.

With `CCCCOCC1COC2(CCC(c3ccc(C4COC(c5c(F)cccc5F)=N4)cc3)CC2)O1` (stereo not shown) [Example 51] the chromatographic logP [6, 7] was 4.97 and the chromatographic logP [6, 8] was 5.

In the case of `CC1COC2(CCC(c3ccc(C4COC(c5c(F)cccc5F)=N4)cc3)CC2)OC1` (stereo not shown) [Example 52], the chromatographic logP [6] is reported as 3.99.

Work on `CC=CC1OC2(CCC(c3ccc(C4COC(c5c(F)cccc5F)=N4)cc3)CC2)OC1C=CC` (stereo not shown) [Example 53] yielded a chromatographic logP [6, 7] of 5.23 and a chromatographic logP [6, 8] of 5.37.

With `C=CCCCCC1COC2(CCC(c3ccc(C4COC(c5c(F)cccc5F)=N4)cc3)CC2)O1` (stereo not shown) [Example 54] the chromatographic logP [6, 7] was 5.65 and the chromatographic logP [6, 8] was 5.7.

Work on `C=CCON=C1CCC(c2ccc(C3COC(c4c(F)cccc4F)=N3)cc2)CC1` (stereo not shown) [Example 55] yielded a chromatographic logP [6] of 4.16.

In the case of `CON=C1CCC(c2ccc(C3COC(c4c(F)cccc4F)=N3)cc2)CC1` (stereo not shown) [Example 56], the chromatographic logP [6] is reported as 3.6.

`O=C1CCC(c2ccc(C3COC(c4c(F)cccc4Cl)=N3)cc2)CC1` (stereo not shown) [Example 57] showed a chromatographic logP [6] of 3.09.

For `Fc1cccc(F)c1C1=NC(c2ccc(C3CCC4(CC3)OCC(c3ccccc3)O4)cc2)CO1` (stereo not shown) [Example 58], the chromatographic logP [6, 7] was 4.78 and the chromatographic logP [6, 8] was 4.87.

`Fc1cccc(F)c1C1=NC(c2ccc(C3CCC4(CC3)OCC(c3c(F)cccc3Cl)O4)cc2)CO1` (stereo not shown) [Example 59] gave a chromatographic logP [6] of 5.14.

In the case of `Fc1cccc(F)c1C1=NC(c2ccc(C3CCC4(CC3)OCC(c3ccc(Cl)c(Cl)c3)O4)cc2)CO1` (stereo not shown) [Example 60], the chromatographic logP [6] is reported as 5.65.
